# Laboratory results published in patent US20130065914A1, “HALOGEN OR CYANO SUBSTITUTED THIENO [2,3-D]PYRIMIDINES HAVING MNK1/MNK2 INHIBITING ACTIVITY FOR PHARMACEUTICAL COMPOSITIONS” (BOEHRINGER INGELHEIM INTERNATIONAL GMBH, priority 2010, published 2013).
# Counter-ions that a name gives are not always drawn.
# Target: T1, human Mnk2a (Homo sapiens, UniProt Q9HBH9)
# T1 construct: the open reading frames of human Mnk1 and Mnk2a were amplified from cDNA; made in house; host or cells: E. coli BL21
# T1 sequence (Q9HBH9 whole entry): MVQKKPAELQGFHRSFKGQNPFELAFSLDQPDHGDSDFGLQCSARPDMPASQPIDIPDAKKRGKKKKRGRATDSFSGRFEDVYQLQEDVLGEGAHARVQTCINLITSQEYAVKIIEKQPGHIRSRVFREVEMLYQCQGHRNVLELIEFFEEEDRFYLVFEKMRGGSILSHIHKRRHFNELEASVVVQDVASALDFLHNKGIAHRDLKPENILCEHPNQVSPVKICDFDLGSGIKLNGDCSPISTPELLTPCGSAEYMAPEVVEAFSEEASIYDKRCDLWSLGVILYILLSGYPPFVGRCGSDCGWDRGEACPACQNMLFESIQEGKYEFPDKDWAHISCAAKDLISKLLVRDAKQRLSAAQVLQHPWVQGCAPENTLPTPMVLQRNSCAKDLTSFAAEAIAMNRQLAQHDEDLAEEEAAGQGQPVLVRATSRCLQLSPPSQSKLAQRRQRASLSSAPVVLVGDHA
# Experiment: Mnk2a in vitro kinase assay (indirect fluorescence polarization)
# Assay type: biochemical
# Details: assay of example 2a; 20 μM ATP, 2.5 nM pre-activated Mnk2a; read-out: MNK2 Inhibition (IC50)
# Description: Assay principle: Inhibitory potency of compounds against Mnk1, Mnk2a and other kinases was assessed with assays based on a format known to those skilled in the art as the indirect (competitive) fluorescence polarization. The assay detection system comprises a small fluorophore-labeled phospho-peptide (termed ligand) bound to a phospho-specific antibody. The product generated by the kinase reaction competes with the ligand for antibody binding. Based on the larger molecular volume of the bound ligand, which results in a lower rotation rate in solution, its emitted light has a higher degree of polarization than the one from the free ligand.
# As a source of enzyme, human Mnk1 and human Mnk2a were expressed as GST fusion proteins in E. coli, purified to >80% homogeneity by glutathione affinity chromatography and activated in vitro with pre-activated ERK2. In brief, the open reading frames of human Mnk1 and Mnk2a were amplified from cDNA using the forward/reverse primer pairs
# (utilized restriction sites underlined), respectively, and cloned into the BamHI and SalI sites of the vector pGEX-4T1 (Amersham, Sweden, cat. no. 27-4580-01). These constructs allow prokaryotic expression of Mnk1 or Mnk2a as fusion protein with a N-terminal glutathione S-transferase (GST) tag, referred to as GST-Mnk1 or GST-Mnk2a. The following expression and purification procedure was identical for GST-Mnk1 and GST-Mnk2a, referring in general to GST-Mnk, when not distinguishing between the two isoforms. Expression of GST-Mnk was in E. coli BL21 (Merck Biosciences, Germany, cat. no. 69449). Cells were grown in LB-Bouillon (Merck, Germany, cat. no. 1.10285) supplemented with 100 μg/ml ampicillin (Sigma, Germany, cat. no. A9518) at 37° C. When the culture had reached a density corresponding to an A600 of 0.8, an equal volume of ice cold LB/ampicillin was added, the culture transferred to 25° C. and induced for 4 h with 1 mM isopropyl thiogalactoside (IPTG, Roth, Germany, cat. no. 2316.4). Cells harvested by centrifugation were resuspended in 10 ml lysis buffer (50 mM tris(hydroxymethyl)aminomethane hydrochloride (Tris/HCl, Sigma, Germany, cat. no. T5941) pH 7.5, 300 mM sodium chloride (NaCl, Sigma, Germany, cat. no. S7653), 5% (w/v) glycerol (Sigma, Germany, cat. no. G5516), 3 mM DTT dithiotreitol (DTT, Sigma, Germany, cat. no. D9779)) per gram wet weight cell pellet. Lysates were prepared by disruption of cells with a sonifier and subsequent clearing by centrifugation at 38000 g for 45 min at 4° C.
# The lysate was applied to a GSTPrep FF 16/10 column (Amersham, Sweden, cat. no. 17-5234-01) equilibrated with lysis buffer. Removal of unbound material was with 3 column volumes (CV) lysis buffer. Elution was with 2 CV of elution buffer (50 mM Tris/HCl pH 7.5, 300 mM NaCl, 5% (w/v) glycerol, 20 mM glutathione (Sigma, Germany, cat. no. G4251)). Peak fractions were pooled and the protein transferred into storage buffer (50 mM Tris/HCl pH 7.5, 200 mM NaCl, 0.1 mM ethylene glycol-bis(2-aminoethylether)-N,N,N′,N′-tetraacetic acid (EGTA, Aldrich, Germany, cat. no. 23, 453-2), 1 mM DTT, 10% (w/v) glycerol, 0.5 M sucrose (Sigma, Germany, cat. no. S0389) by gel filtration on a PD10 desalting column (Amersham, Sweden, cat. no. 17-0851-01). Aliquots were shock frozen in liquid nitrogen and stored at −80° C.
# Activation of Mnk1 and Mnk2a was at a concentration of 2.5 μM of either purified GST-Mnk1 or GST-Mnk2a by incubation with 150 nM pre-activated NHis-ERK2 (see ERK2 assay for preparation) and 50 μM adenosine triphosphate (ATP, Sigma, cat. no. A2699) in a buffer comprising 20 mM N-(2-hydroxyethyl)piperazine-N′-(2-ethanesulfonic acid) (HEPES, Fluka, Germany, cat. no 54459)/potassium hydroxide (KOH, Roth, Germany, cat. no 6751.1) pH 7.4, 10 mM magnesium chloride (MgCl2, Sigma, Germany, cat. no. M2670), 0.25 mM DTT, 0.05% (w/v) polyoxyethylene 20 stearylether (Brij 78, Sigma, Germany, cat. no. P4019) (HMDB buffer) for 45 min at 30° C. […]
row,IC50 [µM],Structure (SMILES)
1,0.011,"Cc1c(Br)sc2ncnc(Nc3ccc(F)cc3OC(C)CN)c12 (stereo not shown) [Example 8, [2-(2-Amino-1-methyl-ethoxy)-4-fluoro-phenyl]-(6-bromo-5-methyl-thieno[2,3-d]pyrimidin-4-yl)-amine]"
2,0.008,"Cc1c(Br)sc2ncnc(Nc3ccc(F)cc3OC(C)CNS(C)(=O)=O)c12 (stereo not shown) [Example 10, N-{2-[2-(6-Bromo-5-methyl-thieno[2,3-d]pyrimidin-4-ylamino)-5-fluoro-phenoxy]-propyl}-methanesulfonamide]"
3,0.01,"Cc1c(Cl)sc2ncnc(Nc3ccc(F)cc3OC(C)CN)c12 (stereo not shown) [Example 13, [2-(2-Amino-1-methyl-ethoxy)-4-fluoro-phenyl]-(6-chloro-5-methyl-thieno[2,3-d]pyrimidin-4-yl)-amine trifluoroacetate]"
4,0.009,"Cc1c(Cl)sc2ncnc(Nc3ccc(F)cc3OC(C)CNS(C)(=O)=O)c12 (stereo not shown) [Example 15, N-{2-[2-(6-Chloro-5-methyl-thieno[2,3-d]pyrimidin-4-ylamino)-5-fluoro-phenoxy]-propyl}-methanesulfonamide]"
5,0.016,"CCOc1cc(C(N)=O)ccc1Nc1ncnc2sc(Cl)c(C)c12 [Example 16.2, 4-(6-Chloro-5-methyl-thieno[2,3-d]pyrimidin-4-ylamino)-3-ethoxy-benzamide]"
6,0.058,"Cc1c(Br)sc2ncnc(Nc3ccc(F)cc3OC(C)C)c12 [Example 18, (6-Bromo-5-methyl-thieno[2,3-d]pyrimidin-4-yl)-(4-fluoro-2-isopropoxy-phenyl)-amine]"

# System: Mnk2 (Mnk2a or Mnk2b) or Mnk1
# Experiment: not given
# Details: cell culture cells transfected with Mnk2 (Mnk2a or Mnk2b) or Mnk1; cited from earlier work
row,Structure (SMILES),reduction of phosphorylated eIF4E
1,Nc1ncnc2n[nH]c(Nc3ccc(F)cc3)c12 [CGP57380],strong reduction
